Data published in patent US20010049373A1, “Materials and methods for killing nematodes and nematode eggs” (priority 2000, published 2001).

Tested on: Caenorhabditis elegans
Assay: C. elegans L1 larvae dose-response, 5 day visual viability score (Examples 2 and 7)
Type: in vivo
Set-up: key: Dead: only stiff L1s (no movement); Dead (L4): worms are dead, but at a later larval stage; majority of worms are L1 (based on size); majority of worms are L2 (based on size); majority of worms are L3 (based on size); majority of worms are L4 (based on size); AD: majority of worms are adult; #AD: 5 adult worms or less; B!: sterile (0-25 progeny); B: low broodsize (25-100 progeny); ˜B: moderate broodsize (100-250 progeny); <: reduced broodsize (250-500 progeny); OK: no effect (˜1000+ progeny)
Conditions: day 5, Table 3
How it was run: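 Twenty L1 larvae per well in NGM with E. coli HB101 were exposed to six 3-fold dilutions from 70 μM to 0.3 μM, 1.4% DMSO final, at 20° C. Day-5 viability was scored visually under a dissecting microscope by developmental stage, adult count and brood size.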

CCC1CCCCN1c1cc(Oc2ccc3oc4ccccc4c3c2)ncn1 (stereo not drawn) [AKC 109]
5 Day Visual Score V6 (0.3 μM (procedure of Example 2)): B (low broodsize (25-100 progeny)) | 5 Day Visual Score V2 (23.3 μM (procedure of Example 2)): L1 | 5 Day Visual Score V1 (70 μM (procedure of Example 2)): L1
